According to patent EP0101641A2, “Sulfonylamino-aza-bicyclo-alkyl derivatives” (BEECHAM GROUP PLC, priority 1982, dated 1984):

Key:
Format in all cases: in vivo
intragastric pressure = assay: Increase in intragastric pressure (peripheral dopamine blockade) in conscious restrained rats; parameters: key: A = active; IA = inactive; settings: rat
Procedure: Increase in intragastric pressure - peripheral dopamine blockade
Intragastric pressure changes were recorded from previously starved conscious but restrained rats using a saline filled catheter inserted into the lumen of the stomach via a permanent gastric fistula. The catheter was connected to a physiological pressure transducer and pressure changes recorded on a hot wire pen recorder. In each animal a pre-dose period of 40 minutes was allowed to obtain a measure of spontaneous activity. An index of activity was obtained by measuring the average height of pressure waves during 10 minute periods. Values for 4 such periods were obtained during assessment of spontaneous activity and for 40 minute period after administration of compound. Student's "T" test was applied to the difference in average values obtained for spontaneous and post compound activity.

vomiting response = assay: Anti-emetic activity in the dog (apomorphine-induced vomiting); parameters: key to Anti-emetic: A = active; IA = inactive; settings: for Anti-emetic: at 0.1 mg/kg s.c., 30 minutes before apomorphine HC1 0.1 mg/kg s.c.; for ED50: Canis lupus familiaris, sc, s.c. 30 minutes before apomorphine HC1 0.1 mg/kg s.c.
Procedure: Anti-emetic activity in the dog
Compounds were administered subcutaneously 30 minutes prior to administration of a standard dose of apomorphine HC1 (0.1 mg/kg subcutaneously) and the vomiting response compared to that obtained when the same animals were dosed with apomorphine HC1 and vehicle only.

Dopamine Receptor = assay: Inhibition of apomorphine induced climbing in the mouse (central dopamine receptor blocking activity); parameters: key to CNS (Climbing): A = active; IA = inactive; settings: apomorphine 1mg/kg s.c.

| Compound | IG Pressure (Basal) (intragastric pressure; at 1.0 mg/kg s.c.) | Anti-emetic (vomiting response) | ED50 (vomiting response) [mg/kg] | CNS (Climbing) ED50 (Dopamine Receptor) | CNS (Climbing) (Dopamine Receptor; at 10 mg/kg s.c.) | IG Pressure (Basal) (intragastric pressure; at 5.0 mg/kg s.c.) | CNS (Climbing) (Dopamine Receptor; at 50 mg/kg s.c.) |
| --- | --- | --- | --- | --- | --- | --- | --- |
| 5-hlethanesu-lphonylamido-2-rnethoxy-3-methyl-N-[3a-[8-benzyl-8-azabicyclo(3.2.1)octyl}]benzamide [Compound 10] | A at 1.0 | A at 0.1 | – | – | – | – | – |
| COc1cc(NS(C)(=O)=O)c(Cl)cc1C(=O)N[C@@H]1C[C@H]2CC[C@@H](C1)N2Cc1ccccc1 [Compound 1, 4-MethanGsulphonamJdo-5-ch3oro-2-methoxy-N-[3P-(8-benzyl-8-azabicyclo{3.2.1)octyl)]benzainide] | A at 1.0 | – | 0.02 | ED50 0.2 mg/kg s.c. | – | – | – |
| COc1cc(NS(C)(=O)=O)ccc1C(=O)N[C@@H]1C[C@H]2CC[C@@H](C1)N2Cc1ccccc1 [Compound 2, 4-methanesulphonamido-2-methoxy-N-[3β-(8-benzyl-8-azabicyclo(3.2.1)octyl)]benzamide] | IA at 1.0 | – | 0.1 | – | A at 10 | – | – |
| COc1cc(NS(C)(=O)=O)c(S(C)(=O)=O)cc1C(=O)N[C@@H]1C[C@H]2CC[C@@H](C1)N2Cc1ccccc1 [Compound 6, 4-Methanesulphonamido-2-methoxy-5-methylsulphonyl-N-[3β-{8-benzy1-8-azabicyclo(3.2.1)octyl)]benzamide] | – | A at 0.1 | – | – | – | IA at 5.0 | IA at 50 |
